Here are results for 72 compounds from patent US8754071B2 (priority 2011, dated 2014).

This assay has as its target T1, c-kit (Homo sapiens, UniProt P10721).
T1 construct: human Mo7e cells which endogenously express c-kit; endogenous in cells; host or cells: human Mo7e cells (promegakaryocytic leukemia line), stimulated with human recombinant SCF
Description: Mo7e cell proliferation assay (SCF dependent proliferation). The assay is classed as cell-based. Particulars: Table 2, read-out: c-kit (Mo7e). The method, boiled down:
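Human Mo7e cells with endogenous c-kit, proliferation driven by SCF, 384-well format. After 48 h at 37 °C viability read by CellTiter-Glo luminescence. IC50 taken as concentration giving response halfway between baseline and maximum.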

Setting [1] is: human Mo7e cells stimulated with SCF, 48 hours, CellTiter Glo, 1% FBS.
Where [2] appears, read: values marked *: 20% FBS instead of 1% FBS.

Read-outs that look alike come from different tables or passages of the source.

T1 sequence (P10721 26-976): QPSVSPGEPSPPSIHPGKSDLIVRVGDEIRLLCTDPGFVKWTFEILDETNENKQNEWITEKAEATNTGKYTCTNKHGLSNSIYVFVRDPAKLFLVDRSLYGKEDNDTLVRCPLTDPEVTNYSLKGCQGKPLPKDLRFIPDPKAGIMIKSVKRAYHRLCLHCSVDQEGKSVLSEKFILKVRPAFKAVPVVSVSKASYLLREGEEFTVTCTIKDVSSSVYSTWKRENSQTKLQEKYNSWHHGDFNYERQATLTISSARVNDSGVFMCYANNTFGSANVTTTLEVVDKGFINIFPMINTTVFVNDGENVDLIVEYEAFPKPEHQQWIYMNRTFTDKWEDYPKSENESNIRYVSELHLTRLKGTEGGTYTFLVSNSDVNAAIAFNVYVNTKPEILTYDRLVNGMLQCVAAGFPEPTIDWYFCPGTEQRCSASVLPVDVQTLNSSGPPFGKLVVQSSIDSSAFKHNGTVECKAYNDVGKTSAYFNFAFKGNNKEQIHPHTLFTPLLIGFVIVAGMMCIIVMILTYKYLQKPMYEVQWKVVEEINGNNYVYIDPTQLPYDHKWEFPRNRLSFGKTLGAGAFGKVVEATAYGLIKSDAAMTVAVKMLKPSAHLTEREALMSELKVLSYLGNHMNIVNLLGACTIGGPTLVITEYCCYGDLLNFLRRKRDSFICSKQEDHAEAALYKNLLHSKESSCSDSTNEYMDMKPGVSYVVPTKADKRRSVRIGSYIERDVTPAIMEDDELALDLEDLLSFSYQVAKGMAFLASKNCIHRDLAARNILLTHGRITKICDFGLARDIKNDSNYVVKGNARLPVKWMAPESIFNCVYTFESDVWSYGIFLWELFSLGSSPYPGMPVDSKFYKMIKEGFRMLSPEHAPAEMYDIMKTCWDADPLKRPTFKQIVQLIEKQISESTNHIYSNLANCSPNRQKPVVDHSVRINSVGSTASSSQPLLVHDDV

`O=C(Nc1cc(-c2noc(CN3CCOCC3)n2)ccc1F)c1cnc2ccccn12` [F229]: under setting [1], the IC50 was 245 nM.

Turning to `Cc1ccc(-c2noc(C3CN(C(=O)C(F)(F)F)C3)n2)cc1NC(=O)c1cnc2ccccn12` [F230], the IC50 under setting [1] is 217 nM.

For the compound `COC(=O)N1CC(c2nc(-c3cc(NC(=O)c4cnc5ccccn45)c(C)cc3F)no2)C1` [F231], the IC50 under setting [1] is 439 nM.

As to `Cc1cc(F)c(-c2noc(C3CN(S(C)(=O)=O)C3)n2)cc1NC(=O)c1cnc2ccccn12` [F232], the IC50 under setting [1] amounted to 489 nM.

On to `COC(=O)N1CC(c2nc(-c3ccc(C)c(NC(=O)c4cnc5ccc(C(F)(F)F)cn45)c3)no2)C1` [F233], for which the IC50 under setting [1] came out at 218 nM.

On to `Cc1ccc(-c2noc(C3CN(C(=O)OC(C)C)C3)n2)cc1NC(=O)c1cnc2ccccn12` [F234], for which the IC50 under setting [1] was 245 nM.

For the compound `COC(=O)N1CC(c2nc(-c3ccc(C)c(NC(=O)c4cnc5cc(C#N)ccn45)c3)no2)C1` [F235], the IC50 under setting [1] is 181 nM.

Turning to `COC(=O)N1CC(c2nc(-c3ccc(C)c(NC(=O)c4cnc5ccc(C#N)cn45)c3)no2)C1` [F236], the IC50 under setting [1] came out at 103 nM.

On to `COCC(c1nc(-c2ccc(C)c(NC(=O)c3cnc4ccccn34)c2)no1)N1CCC(F)(F)C1` (stereo not drawn) [F237], for which the IC50 under setting [1] turned out to be 109 nM.

Consider `COC(=O)N1CC(c2nc(-c3ccc(C)c(NC(=O)c4cnc5cc(C(F)(F)F)ccn45)c3)no2)C1` [F238], for which, under setting [1], the IC50 is 130 nM.

For the compound `Cc1ccc(-c2noc(C3(C)CN(C(=O)OC(C)(C)C)C3)n2)cc1NC(=O)c1cnc2ccccn12` [F239], under setting [1], the IC50 worked out at 831 nM.

Take `COC(=O)N1CC(C)(c2nc(-c3ccc(C)c(NC(=O)c4cnc5ccccn45)c3)no2)C1` [F240]: the IC50 under setting [1] stood at 249 nM.

As for `COC(=O)N1CC(c2nc(-c3ccc(C)c(NC(=O)c4cnc5ccc(CCC(=O)OC(C)(C)C)cn45)c3)no2)C1` [F241], the IC50 under setting [1] was 115 nM.

On to `COC(=O)N1CC(c2nc(-c3ccc(C)c(NC(=O)c4cnc5c(F)cccn45)c3)no2)C1` [F242], for which, under setting [1], the IC50 came out at 812 nM.

`Cc1ccc(-c2noc(C3CN(c4cnccn4)C3)n2)cc1NC(=O)c1cnc2ccccn12` [F243]: under setting [1], the IC50 came to 310 nM.

As to `Cc1nc(N2CC(c3nc(-c4ccc(C)c(NC(=O)c5cnc6ccccn56)c4)no3)C2)no1` [F244], under setting [1], the IC50 was 176 nM.

Consider `COC(=O)N1CC(c2nc(-c3ccc(C)c(NC(=O)c4cnc5ccc(C(C)=O)cn45)c3)no2)C1` [F245], for which the IC50 under setting [1] stood at 178 nM.

As to `COC(=O)N1CC(c2nc(-c3ccc(C)c(NC(=O)c4cnc5ccc(C(C)(C)O)cn45)c3)no2)C1` [F246], the IC50 under setting [1] is 317 nM.

With `COC(=O)N1CC(c2nc(-c3ccc(C)c(NC(=O)c4cnc5ccc(CC(C)(C)O)cn45)c3)no2)C1` [F247], the IC50 under setting [1] came to 328 nM.

`Cc1ccc(-c2noc(N3CCC3)n2)cc1NC(=O)c1cnc2ccccn12` [F248]: under setting [1], the IC50 came out at 132 nM.

For `COC(=O)N1CC(c2nc(-c3ccc(C)c(NC(=O)c4cnc5ccccn45)c3C)no2)C1` [F249], the IC50 under setting [1] worked out at 426 nM.

On to `COC(=O)N1CC(c2nc(-c3ccc(C)c(NC(=O)c4cnc5cc(N6CCOC6=O)ccn45)c3)no2)C1` [F250], for which the IC50 under setting [1] turned out to be 114 nM.

As to `Cc1ccc(-c2nc(N3CC(C)(O)C3)no2)cc1NC(=O)c1cnc2ccccn12` [F251], the IC50 under setting [1] stood at 157 nM.

Take `COC(=O)N1CC(c2nc(-c3ccc(C)c(NC(=O)c4cnc5ccc(-n6ccnc6)cn45)c3)no2)C1` [F252]: the IC50 under setting [1] came to 421 nM.

Take `COCc1n[nH]c(-c2ccc3ncc(C(=O)Nc4cc(-c5noc(C6CN(C(=O)OC)C6)n5)ccc4C)n3c2)n1` [F253]: the IC50 under setting [1] turned out to be 215 nM.

In the case of `COC1CN(c2nc(-c3ccc(C)c(NC(=O)c4cnc5cc(C)ccn45)c3)no2)C1` [F254], the IC50 under setting [1] came out at 111 nM.

On to `Cc1ccn2c(C(=O)Nc3cc(-c4noc(N5CCN6C(=O)OC[C@@H]6C5)n4)ccc3C)cnc2c1` [F255], for which the IC50 under setting [1] came out at 129 nM.

As for `Cc1ccc(-c2noc(CN3CC(C#N)C3)n2)cc1NC(=O)c1cnc2ccc(-c3cnn(C)c3)cn12` [F256], the IC50 under setting [1] amounted to 106 nM.

With `Cc1ccc(-c2noc(C3CN(C(=O)OCC(F)F)C3)n2)cc1NC(=O)c1cnc2ccccn12` [F259], the IC50 under setting [1] was found to be 177 nM.

Turning to `Cc1ccc2ncc(C(=O)Nc3cc(-c4noc(COC5COC5)n4)ccc3C)n2c1` [F260], the IC50 under setting [1] came out at 205 nM.

Take `Cc1ccc2ncc(C(=O)Nc3cc(-c4noc(C5CCN5C(=O)OC(C)(C)C)n4)ccc3C)n2c1` (stereo not drawn) [F261]: the IC50 under setting [1] is 291 nM.

Consider `COC(=O)N1CC[C@H]1c1nc(-c2ccc(C)c(NC(=O)c3cnc4ccc(C)cn34)c2)no1` [F262], for which the IC50 under setting [1] was 309 nM.

As for `Cc1ccc(-c2noc(C3CCO3)n2)cc1NC(=O)c1cnc2ccccn12` (stereo not drawn) [F263], the IC50 under setting [1] stood at 350 nM.

Take `Cc1ccc(-c2noc(C3CN(C(=O)OCC(F)(F)F)C3)n2)cc1NC(=O)c1cnc2ccccn12` [F264]: the IC50 under setting [1] is 438 nM.

Consider `COC(=O)N1CC(c2nc(-c3ccc(C)c(NC(=O)c4cnc5ccc(CO)cn45)c3)no2)C1` [F266], for which the IC50 under setting [1] stood at 523 nM.

For the compound `Cc1ccc2ncc(C(=O)Nc3cc(-c4noc(COC5CN(C(=O)OC(C)(C)C)C5)n4)ccc3C)n2c1` [F267], the IC50 under setting [1] is 650 nM.

On to `CC(=O)N1CCC[C@@H]1c1nc(-c2ccc(C)c(NC(=O)c3cnc4ccccn34)c2)no1` [F269], for which, under setting [1], the IC50 came out at 1010 nM.

As to `Cc1ccc(-c2noc(CNC(=O)CC3CCOCC3)n2)cc1NC(=O)c1cnc2ccccn12` [F270], the IC50 under setting [1] is 1040 nM.

As to `CCN1CC(c2nc(-c3ccc(C)c(NC(=O)c4cnc5ccccn45)c3)no2)C1` [F271], the IC50 under setting [1] is 1120 nM.

Take `Cc1ccc(-c2noc(C3C[C@@H](O)CN3S(C)(=O)=O)n2)cc1NC(=O)c1cnc2ccc(F)cn12` (stereo partly drawn) [F272]: the IC50 under setting [1] was found to be 1140 nM.

Consider `Cc1ccc(-c2noc([C@H]3C[C@@H](O)CN3S(C)(=O)=O)n2)cc1NC(=O)c1cnc2ccc(F)cn12` [F273], for which the IC50 under setting [1] was found to be 1170 nM.

On to `Cc1ccc(-c2noc(C3CCCNC3)n2)cc1NC(=O)c1cnc2ccccn12` (stereo not drawn) [F274], for which, under setting [1], the IC50 was determined as 1200 nM.

Take `CC(=O)N1CCOC[C@H]1c1nc(-c2ccc(C)c(NC(=O)c3cnc4ccccn34)c2)no1` [F275]: the IC50 under setting [1] came to 1230 nM.

As for `Cc1ccc(-c2noc([C@@H]3COCCN3)n2)cc1NC(=O)c1cnc2ccccn12` [F276], under setting [1], the IC50 is 1240 nM.

Regarding `Cc1ccc(-c2noc(C3CN(C(=O)OC(C)(C)C)CCO3)n2)cc1NC(=O)c1cnc2ccccn12` (stereo not drawn) [F277], the IC50 under setting [1] came out at 1250 nM.

On to `Cc1ccc(-c2noc([C@H]3CCCN3C(=O)OC(C)(C)C)n2)cc1NC(=O)c1cnc2ccccn12` [F278], for which the IC50 under setting [1] stood at 1280 nM.

As for `Cc1cc(F)c(-c2noc(C3CN(C(=O)OC(C)(C)C)C3)n2)cc1NC(=O)c1cnc2ccccn12` [F279], the IC50 under setting [1] came to 1280 nM.

For the compound `Cc1ccc2ncc(C(=O)Nc3cc(-c4noc([C@@H]5CCN5)n4)ccc3C)n2c1` [F280], under setting [1], the IC50 came out at 1310 nM.

Take `Cc1ccn2c(C(=O)Nc3cc(-c4noc(N5CC(S(C)(=O)=O)C5)n4)ccc3C)cnc2c1` [F281]: under setting [1], the IC50 came out at 1370 nM.

Regarding `Cc1ccc(-c2noc(C3CCCN(C(=O)OC(C)(C)C)C3)n2)cc1NC(=O)c1cnc2ccccn12` (stereo not drawn) [F282], the IC50 under setting [2] is 1600 nM.

On to `Cc1ccc(-c2noc(CC3CN(C(=O)OC(C)(C)C)C3)n2)cc1NC(=O)c1cnc2ccccn12` [F283], for which, under setting [1], the IC50 was 1630 nM.

For the compound `Cc1ccc(-c2noc(C[C@H]3CCNC3)n2)cc1NC(=O)c1cnc2ccccn12` [F284], the IC50 under setting [1] came out at 1650 nM.

In the case of `Cc1ccc(-c2noc(C3CCCNC3)n2)cc1NC(=O)c1cnc2ccccn12` (stereo not drawn) [F285], the IC50 under setting [1] was determined as 1670 nM.

On to `Cc1ccc(-c2noc(C3(N)COC3)n2)cc1NC(=O)c1cnc2ccccn12` [F286], for which the IC50 under setting [1] is 1680 nM.

On to `Cc1ccc(-c2noc([C@@H]3C[C@H](O)CN3S(C)(=O)=O)n2)cc1NC(=O)c1cnc2ccc(F)cn12` [F287], for which the IC50 under setting [1] is 1680 nM.

For the compound `Cc1ccc(-c2noc(C3CCCCN3C(=O)OC(C)(C)C)n2)cc1NC(=O)c1cnc2ccccn12` (stereo not drawn) [F288], under setting [2], the IC50 amounted to 1780 nM.

Consider `Cc1ccc(-c2noc(CC3CCNCC3)n2)cc1NC(=O)c1cnc2ccccn12` [F289], for which the IC50 under setting [1] came to 1880 nM.

With `Cc1ccc(-c2noc(C3CCNCC3)n2)cc1NC(=O)c1cnc2ccccn12` [F290], under setting [1], the IC50 came to 1890 nM.

Regarding `Cc1ccc(-c2noc(CN3CC(S(C)(=O)=O)C3)n2)cc1NC(=O)c1cnc2ccccn12` [F291], the IC50 under setting [1] amounted to 1920 nM.

Take `Cc1ccc(-c2noc(CNC(=O)N3CCOCC3)n2)cc1NC(=O)c1cnc2ccccn12` [F292]: the IC50 under setting [1] turned out to be 1930 nM.

Take `Cc1ccc2ncc(C(=O)Nc3cc(-c4noc(COC5CNC5)n4)ccc3C)n2c1` [F293]: the IC50 under setting [1] amounted to 2150 nM.

Turning to `Cc1ccc(-c2nc(N3CC4(COC4)C3)no2)cc1NC(=O)c1cnc2ccccn12` [F294], the IC50 under setting [1] was 2200 nM.

In the case of `Cc1ccc(-c2noc(CC3CNC3)n2)cc1NC(=O)c1cnc2ccccn12` [F295], under setting [1], the IC50 was found to be 2200 nM.

`Cc1ccc(-c2noc(C3CCNC3)n2)cc1NC(=O)c1cnc2ccccn12` (stereo not drawn) [F296]: the IC50 under setting [1] stood at 2440 nM.

As to `Cc1ccc(-c2noc([C@@H]3CCCO3)n2)cc1NC(=O)c1cnc2ccccn12` [F297], the IC50 under setting [1] is 2790 nM.

Regarding `Cc1ccc(-c2noc(C3CNC3)n2)cc1NC(=O)c1cnc2ccccn12` [F298], under setting [1], the IC50 is 2860 nM.

As for `Cc1ccc(-c2noc(C3CN(S(=O)(=O)c4c[nH]cn4)C3)n2)cc1NC(=O)c1cnc2ccccn12` [F299], the IC50 under setting [1] was determined as 3520 nM.

For `Cc1ccc(-c2nc(C3CN(C(=O)OC(C)(C)C)C3)no2)cc1NC(=O)c1cnc2ccccn12` [F300], the IC50 under setting [1] was 3560 nM.

For the compound `Cc1ccc(-c2noc(C3CN(S(=O)(=O)c4cn(C)cn4)C3)n2)cc1NC(=O)c1cnc2ccccn12` [F301], under setting [1], the IC50 came out at 3970 nM.

As for `Cc1ccc(-c2noc([C@H]3C[C@@H](O)CN3)n2)cc1NC(=O)c1cnc2ccc(F)cn12` [F302], the IC50 under setting [1] stood at 4330 nM.

On to `Cc1ccc(-c2noc(CCC(=O)N3CCN(C)CC3)n2)cc1NC(=O)c1cnc2ccccn12` [F303], for which, under setting [1], the IC50 was found to be 4640 nM.

As for `Cc1ccc(-c2noc(CC3CCNC3)n2)cc1NC(=O)c1cnc2ccccn12` (stereo not drawn) [F304], the IC50 under setting [1] was found to be 5230 nM.
